In PMC7576608, “Mechanisms of telomerase inhibition by oxidized and therapeutic dNTPs” (Nature Communications, 2020):
Several values for one entry are separate records, joined by “and”; a condition that tells them apart may be missing. Identical values can stand only once.

Experiments:
telomerase [1] = biological target: T1, telomerase (Homo sapiens, UniProt O14746); test: Telomerase repeat processivity IC50: modified dNTP titrated into reactions with all four natural dNTPs; format: biochemical; set-up: made in house; anti-FLAG immunopurification, eluted with 3xFLAG peptide; conditions: for Slope (line fit of ln(100-%LB) vs # telomere repeats) / YIntercept (line fit of ln(100-%LB) vs # telomere repeats): replicates n1, n2; for ln(100-%LB): n1, n2
T1 sequence (O14746 whole entry): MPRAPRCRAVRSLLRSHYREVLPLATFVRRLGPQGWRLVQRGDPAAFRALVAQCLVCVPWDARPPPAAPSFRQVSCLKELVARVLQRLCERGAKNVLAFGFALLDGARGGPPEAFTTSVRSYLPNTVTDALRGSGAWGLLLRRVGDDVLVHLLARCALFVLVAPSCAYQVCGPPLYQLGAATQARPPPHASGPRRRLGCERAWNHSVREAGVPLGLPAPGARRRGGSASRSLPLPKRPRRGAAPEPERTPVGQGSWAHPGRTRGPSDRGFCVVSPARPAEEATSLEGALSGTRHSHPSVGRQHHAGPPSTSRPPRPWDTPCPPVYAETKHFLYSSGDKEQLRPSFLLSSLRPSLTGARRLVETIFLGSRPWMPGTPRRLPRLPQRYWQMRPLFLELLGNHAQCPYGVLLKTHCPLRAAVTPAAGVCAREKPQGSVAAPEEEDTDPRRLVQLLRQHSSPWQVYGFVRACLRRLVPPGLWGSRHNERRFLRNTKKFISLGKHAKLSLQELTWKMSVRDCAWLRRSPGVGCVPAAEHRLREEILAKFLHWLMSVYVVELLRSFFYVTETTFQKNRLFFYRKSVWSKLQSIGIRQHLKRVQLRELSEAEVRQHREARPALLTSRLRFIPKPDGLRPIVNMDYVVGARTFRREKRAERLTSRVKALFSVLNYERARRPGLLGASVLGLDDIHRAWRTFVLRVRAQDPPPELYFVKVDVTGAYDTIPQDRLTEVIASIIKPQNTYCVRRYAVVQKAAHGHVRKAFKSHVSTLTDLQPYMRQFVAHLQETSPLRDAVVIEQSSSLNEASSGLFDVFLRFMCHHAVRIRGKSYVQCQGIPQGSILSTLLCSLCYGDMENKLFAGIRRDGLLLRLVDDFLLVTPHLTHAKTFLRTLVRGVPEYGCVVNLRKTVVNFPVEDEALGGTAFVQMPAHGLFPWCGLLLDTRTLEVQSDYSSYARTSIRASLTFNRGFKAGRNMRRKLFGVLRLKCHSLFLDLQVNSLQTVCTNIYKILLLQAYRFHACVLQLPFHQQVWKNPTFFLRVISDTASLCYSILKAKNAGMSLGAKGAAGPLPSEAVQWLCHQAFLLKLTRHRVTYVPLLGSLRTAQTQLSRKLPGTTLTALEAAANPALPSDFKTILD
Text: In order to better understand the ability of modified dNTPs to compete with natural dNTPs for telomerase utilization, we added modified dNTPs to reactions containing all four natural dNTPs. […] The calculated IC50 determines the concentration required to reduce repeat processivity in the bulk reactions by half. However, it is important to note that bulk experiments cannot distinguish effects on individual telomeres, since extended telomeres mask unextended telomeres. Incorporation of a chain terminator during any step will terminate extension of the affected telomere, and just five critically short telomeres are sufficient to trigger senescence. Therefore, repeat processivity IC50 values are not necessarily an indicator of the inhibitory potency, but provide information on selectivity for modified dNTPs compared to natural dNTPs. […] The ability to purify sufficient quantities of tcTERT enables characterization of the catalytic nucleotide addition by pre-steady-state single turnover kinetics using a defined DNA–RNA primer–template substrate. The catalytic efficiency of incorporating a single dNTP is measured by dividing the observed nucleotide incorporation rate constant, kpol, by the equilibrium dissociation constant for dNTP binding to the tcTERT–primer–template complex (Kd)[44].
(§1) The reactions were started by the addition of 3 μl of immunopurified telomerase eluent, incubated at 37 °C for 1 h, then terminated with 2 μl of 0.5 mM EDTA and heat inactivated at 65 °C for 20 min. An equal volume of loading buffer (94% formamide, 0.1× TBE, 0.1% bromophenol blue, 0.1% xylene cyanol) was added to the reaction eluent. The samples were heat denatured for 10 min at 100 °C and loaded onto a 14% denaturing acrylamide gel (7 M urea, 1× TBE) and electrophoresed for 90 min at constant 38 W. Samples were imaged using a Typhoon phosphorimager (GE Healthcare). Percent primer extension was calculated with ImageQuant TL 8.2 by measuring the intensity of each product band and dividing by the total radioactivity in the lane or total products, as indicated in the figure legends.
The processivity was calculated as described[40],[67]. Repeat processivity from the direct telomerase extension assays was calculated as R1/2 (equivalent to the half-time for decay in an exponential time course), which represents the median length of DNA product formed, expressed in terms of number of telomere repeats. First, the total volume counts for each product band extend by one or more telomere repeats were obtained using Image Quant TL. The volume counts were then normalized by dividing by the number of radiolabeled guanosines incorporated into the extended products based on the number of repeats added, termed corrected volume (corr vol). The “percent left behind” (%LB) was calculated for each product band by summing the counts for that product band and for every product band below (shorter products), divided by the total counts for the lane, and then multiplied by 100. The natural log of (100−%LB) was calculated and then plotted vs. repeat number for each product length. A linear regression line was fit to the data to determine the slope of the line. The R1/2 value was calculated by dividing −ln(2) by the slope of each fitted line (R1/2 = −ln(2)/slope).
Supplementary Fig 8. IC50 values for telomerase processivity inhibition. Telomerase reactions were conducted with cellular relevant concentrations of all four natural dNTPs and increasing concentrations of the modified dNTP analog from 0 to 10,000 μM to calculate. (a) The natural log of (100-%LB) was plotted vs repeat number. A straight line was fit to the data and the R1/2 value was calculated by dividing –ln(2) by the slope of each line. Plots shown from one experiment are […]

telomerase [2] = biological target: T1, telomerase; test: Telomerase extension of 32P-end labeled primers with a single dNTP (percent primer extension); format: biochemical; set-up: made in house; anti-FLAG immunopurification, eluted with 3xFLAG peptide; conditions: for Percent Primer Extension: 50 μM single dNTP
Description: A chain terminating mechanism of inhibition requires that the enzyme adds the modified dNTP to a growing chain, which then blocks further synthesis. […] To test whether telomerase can incorporate other modified dNTPs, and whether the incorporation is chain terminating and/or mutagenic, we conducted direct extension assays in which we radiolabeled the primer and added increasing concentrations (5, 50, and 500 μM) of a single dNTP (Supplementary Figs. 3, 5, 6, and 7). Since modified dNTPs may prefer mispairing, we tested various primers in which the first template base was either rA3, rC1, or rU5 (primer 1, primer 2, and primer 3, respectively), and compared the percent primer extension for each dNTP at the middle 50 μM concentration (Fig. 3). Primers 1 and 2 initiate synthesis at consecutive rA3rA4 or rC1rC2 template bases, respectively, so we could examine both incorporation and extension to the next base. However, the telomerase template lacks tandem rU residues.
Fig. 3 Telomerase insertion of modified dNTPs. Telomerase reactions were conducted with 5 nM ^32P-end labeled primer a Primer 1 (TTAGGG)3, b Primer 2 (GGTTAG)3, or c Primer 3 (AGGGTT)3. Reactions contained cellular-concentration dNTPs (lane 1) or 50 μM of indicated natural dNTP (blue, lanes 2–5), oxidized dNTP (red, lanes 6–8), or therapeutic dNTP (green, lanes 9–11). Products were separated on denaturing gels. […] Letters on the right indicate the template base; P indicates unextended 18-mer primer. Graphs represent the percent of total primers extended. Images are representative of, and data are shown as mean ± s.d. from, three independent experiments. Source data are provided as a Source Data file.
as §1, with “An” for “The reactions were started by the addition of 3 μl of immunopurified telomerase eluent, incubated at 37 °C for 1 h, then terminated with 2 μl of 0.5 mM EDTA and heat inactivated at 65 °C for 20 min. An”
Telomerase reactions were conducted with 5 nM 32P-end labeled primer (a) Primer 1 (TTAGGG)3, (b) Primer 2 (GGTTAG)3, or (c and d) Primer 3 […]
(d) reactions contained 3 µg/µl RNase A. Products were separated on denaturing gels. Letters on the right indicate the template base; P indicates unextended 18-mer primer. Graphs represent the percent of total primers extended for the reactions in panels a – c from one experiment. Panel d is a representative image from three independent experiments. Source data are provided as a Source Data file. […]
Supplementary Fig 4. Time course reactions with telomerase or pol β. (a, b) Telomerase reactions were conducted with 5 nM 32P-end labeled primer (a) Primer 4 (GTTAGG)3 or (b) Primer 2 (GGTTAG)3.
Products were separated on denaturing gels. Letters on the right indicate the template base; P indicates […]
unextended 18-mer primer. […]

SMILES: Cc1cn(C2CC(N=[N+]=[N-])C(COP(=O)(O)OP(=O)(O)OP(=O)(O)O)O2)c(=O)[nH]c1=O (stereo not drawn) [AZ-TP]
- Slope (line fit of ln(100-%LB) vs # telomere repeats) (telomerase [1]; 8μM): -0.35 and -0.41
- YIntercept (line fit of ln(100-%LB) vs # telomere repeats) (telomerase [1]; 8μM): 3.32 and 3.48
- ln(100-%LB) (telomerase [1]; 8μM, telomere repeat 1): 3.55 and 3.46
- ln(100-%LB) (telomerase [1]; 8μM, telomere repeat 2): 2.86 and 2.72
- ln(100-%LB) (telomerase [1]; 8μM, telomere repeat 3): 2.16 and 1.97
- ln(100-%LB) (telomerase [1]; 8μM, telomere repeat 4): 1.81 and 1.63
- ln(100-%LB) (telomerase [1]; 8μM, telomere repeat 5): 1.46 and 1.29
- ln(100-%LB) (telomerase [1]; 8μM, telomere repeat 6): 1.02 and 0.87
- ln(100-%LB) (telomerase [1]; 8μM, telomere repeat 7): 0.66 and 0.48
- ln(100-%LB) (telomerase [1]; 8μM, telomere repeat 8): 0.32 and 0.21
- Slope (line fit of ln(100-%LB) vs # telomere repeats) (telomerase [1]; 32μM): -0.51 and -0.43
- YIntercept (line fit of ln(100-%LB) vs # telomere repeats) (telomerase [1]; 32μM): 3.76 and 3.36
- ln(100-%LB) (telomerase [1]; 32μM, telomere repeat 1): 3.48 and 3.40
- ln(100-%LB) (telomerase [1]; 32μM, telomere repeat 2): 2.72 and 2.60
- ln(100-%LB) (telomerase [1]; 32μM, telomere repeat 3): 1.91 and 1.78
- ln(100-%LB) (telomerase [1]; 32μM, telomere repeat 4): 1.53 and 1.42
- ln(100-%LB) (telomerase [1]; 32μM, telomere repeat 5): 1.15 and 1.06
- ln(100-%LB) (telomerase [1]; 32μM, telomere repeat 6): 0.66
- ln(100-%LB) (telomerase [1]; 32μM, telomere repeat 7): 0.23 and 0.18
- Slope (line fit of ln(100-%LB) vs # telomere repeats) (telomerase [1]; 500μM): -1.08 and -0.93
- YIntercept (line fit of ln(100-%LB) vs # telomere repeats) (telomerase [1]; 500μM): 4.06 and 3.77
- ln(100-%LB) (telomerase [1]; 500μM, telomere repeat 1): 3.07 and 3.05
- ln(100-%LB) (telomerase [1]; 500μM, telomere repeat 2): 1.89 and 1.90
- ln(100-%LB) (telomerase [1]; 500μM, telomere repeat 3): 0.66 and 0.65
- Slope (line fit of ln(100-%LB) vs # telomere repeats) (telomerase [1]; 1000μM): -1.14 and -1.23
- YIntercept (line fit of ln(100-%LB) vs # telomere repeats) (telomerase [1]; 1000μM): 4.20 and 4.38
- ln(100-%LB) (telomerase [1]; 1000μM, telomere repeat 1): 3.08 and 3.19
- ln(100-%LB) (telomerase [1]; 1000μM, telomere repeat 2): 1.90 and 1.97
- ln(100-%LB) (telomerase [1]; 1000μM, telomere repeat 3): 0.69 and 0.55
- Slope (line fit of ln(100-%LB) vs # telomere repeats) (telomerase [1]; 2000μM): -1.39 and -1.63
- YIntercept (line fit of ln(100-%LB) vs # telomere repeats) (telomerase [1]; 2000μM): 4.11 and 4.80
- ln(100-%LB) (telomerase [1]; 2000μM, telomere repeat 1): 2.72 and 3.17
- ln(100-%LB) (telomerase [1]; 2000μM, telomere repeat 2): 1.32 and 1.54

SMILES: Cc1cn([C@H]2C[C@H](N=[N+]=[N-])[C@@H](CO)O2)c(=O)[nH]c1=O [AZT]
- % Primer Extension (telomerase [2]; Primer 1, 5µM dNTP): 6.28%
- % Primer Extension (telomerase [2]; Primer 1, 50µM dNTP): 12.17%
- % Primer Extension (telomerase [2]; Primer 1, 500µM dNTP): 12.98%
- % Primer Extension (telomerase [2]; Primer 2, 5µM dNTP): 0%
- % Primer Extension (telomerase [2]; Primer 2, 50µM dNTP): 0%
- % Primer Extension (telomerase [2]; Primer 2, 500µM dNTP): 0%
- % Primer Extension (telomerase [2]; Primer 3, 5µM dNTP): 0%
- % Primer Extension (telomerase [2]; Primer 3, 50µM dNTP): 3.43%
- % Primer Extension (telomerase [2]; Primer 3, 500µM dNTP): 4.38%

SMILES: Nc1ccn([C@H]2C[C@H](O)[C@@H](COP(=O)(O)OP(=O)(O)OP(=O)(O)O)O2)c(=O)n1 [dCTP]
- Percent Primer Extension (telomerase [2]; Primer 1 (TTAGGG)3, first template base rA3, Mean of three experiments): 5.85%
- Percent Primer Extension (telomerase [2]; Primer 1 (TTAGGG)3, first template base rA3, single experiments n1-n3, listed as dC): 5.75% and 3.98% and 7.81%
- % Primer Extension (telomerase [2]; Primer 1, 5µM dNTP): 4.15%
- % Primer Extension (telomerase [2]; Primer 1, 50µM dNTP): 7.81%
- % Primer Extension (telomerase [2]; Primer 1, 500µM dNTP): 8.06%
- Percent Primer Extension (telomerase [2]; Primer 2 (GGTTAG)3, first template base rC1, Mean of three experiments): 0.00%
- Percent Primer Extension (telomerase [2]; Primer 2 (GGTTAG)3, first template base rC1, single experiments n1-n3): 0.00%
- % Primer Extension (telomerase [2]; Primer 2, 5µM dNTP): 0.00%
- % Primer Extension (telomerase [2]; Primer 2, 50µM dNTP): 0.00%
- % Primer Extension (telomerase [2]; Primer 2, 500µM dNTP): 0.00%
- Percent Primer Extension (telomerase [2]; Primer 3 (AGGGTT)3, first template base rU5, Mean of three experiments): 0.00%
- Percent Primer Extension (telomerase [2]; Primer 3 (AGGGTT)3, first template base rU5, single experiments n1-n3): 0.00%
- % Primer Extension (telomerase [2]; Primer 3, 5µM dNTP): 0.00%
- % Primer Extension (telomerase [2]; Primer 3, 50µM dNTP): 0.00%
- % Primer Extension (telomerase [2]; Primer 3, 500µM dNTP): 0.00%
